# Results reported in patent US10646478B2, “Methods for treatment of melanoma” (CHILDREN'S MEDICAL CENTER CORPORATION, priority 2011, dated 2020).
# How the values were obtained:
# [1] = tested on: crestin+ neural crest progenitors; test: In situ hybridization (ISH) for crestin in zebrafish embryos (chemical screen for suppressors of neural crest development); type: in vivo; settings: for crestin expression by ISH: zebrafish embryos, 50% epiboly to 24 hpf
# Experimental: The screen was performed essentially as previously described^31. In brief, WT embryos were collected, staged and then plated at a density of 10 embryos per well in a […] tissue culture plate in 200 ul of E3 water. At 50% epiboly, 100 ul of a 3× chemical stock was added to each well using a Hamilton liquid handling robot, yielding a final 1× concentration. For the majority of the chemicals in the library, this yielded a concentration of ˜33 uM. The libraries used were the BIOMOL 480, Sigma LOPAC 1280, and selected additional compounds obtained through the Children's Hospital Boston Chemical Screening facility. Compounds known to affect pigmentation in Xenopus were obtained from a screen previously described^32, 33. After treatment, embryos were rinsed in E3 water, pronase treated to remove chorions, washed 4× in E3 and 1× in PBT, and then fixed in 4% PFA for 24 hours. Fixed embryos were changed to 100% methanol 24 h later, and kept until the time of ISH.
# Embryos underwent automated ISH using a Biolane HTI robot with a crestin riboprobe as previously described^31. All wells were manually scored by eye, assigning a score within a range of 1 (no crestin staining) to 3 (no change in crestin) to 5 (marked increase in crestin). Note was also taken of chemicals that affected migratory patterns in both A-P and D-V directions, and overall morphology. […] All hits were validated in larger, independent clutches of 100-200 embryos using chemicals obtained from independent suppliers.
# [2] = tested on: 5' and 3' transcripts of mitf, dlb, beta-actin; test: 5'-3' transcriptional elongation assay (qRT-PCR on whole embryos); type: in vivo, zebrafish
# Experimental: Primers were designed to the noted genes, situated at the very 5′ end or 3′ end of the gene, situated in the UTR if annotated. qRT-PCR was then performed using SYBR Green, and each primer pair was normalized to an average of the Ct value for the 5′ beta-actin and 3′ beta-actin primers. Fold-change was calculated using the delta-delta Ct method, and all values are expressed relative to the DMSO control, after log 2 transformation. Differences between groups were assessed using t-tests. Primer sequences available upon request.
# [3] = tested on: human melanoma cell lines (A375, Hs.294t, RPMI7951); test: In vitro melanoma proliferation assay (CellTiterGlo); type: cell-based; settings: A375, Hs.294t, RPMI7951; CellTiterGlo
# Experimental: Human melanoma cell lines (A375, RPMI7951, Hs.294T, MAMLE-3M) were obtained from the American Type Culture Collection. The 8988 cell line was provided by Alec Kimmelman at Dana Farber, and the PANC1 and MDA-231-MB lines were provided by Rania Hartouche at Harvard. Cells were cultured in DMEM/10% FCS at 37 C, 5% CO2. For proliferation assays, 96-well clear bottom plates were used to plate cells at a density of 5,000 cells/well (RPMI7951 and A375) or 10,000 cells/well (MAMLE-3M-3M and Hs.294T) in 100 ul containing indicated concentrations of A771726 or PLX4720 or DMSO. All conditions were tested in triplicate. Media was changed at day 2, and proliferation rate was measured at day 4 using the CellTiterGlo assay kit (Promega). All values are expressed are the % of luciferase relative to the DMSO control well. Differences between groups were statistically analyzed using a generalized linear ANOVA model taking into account factors of PLX4720, A771726 and dose. IC50's were calculated using a log-logistic model.
# A375 cell line = test: Microarray analysis of A375 cells treated with leflunomide; type: cell-based, human; settings: 25 uM, 3 days
# Experimental: Expression analysis was performed using Illumina WG6 v3 arrays, and the data was analyzed using Illumina Genome Studio.
# A375 melanoma cells = test: In vivo xenograft study of A375 cells in nude mice; design: species or system mouse; settings: daily i.p.; PLX4720 2.5 mg/kg, Leflunomide 7.5 mg/kg; DMSO 7.4+/−1.3-fold
# Experimental: The A375 cell line was chosen for xenografts based on prior experience with PLX4720 in this line. Cells were grown to 60-70% confluence, trypsinized and 3.5×10^5 cells were transplanted into the right flank of nude mice in a volume of 200 ul. […] Tumors were measured with digital calipers on day 4, 7 and 12 and growth rate was compared to the tumor size on day 0. Growth rates were compared between DMSO, PLX, LEF or […] using ANOVA with repeated measures to identify significant interactions. For the day 12 data, differences between the groups were compared using ANOVA followed by posthoc Tukey's least-squared difference.
# A375 cells = test: Cell viability of melanoma cell line A375 (FIG. 28b); type: cell-based, human
# Text: FIG. 28a, M481 cells. FIG. 28b, A375 cells. FIG. 28c, M405 cells. FIG. 28d, M528 cells. FIG. 28e, M715 cells.
# [4] = tested on: M481 primary human melanoma xenografts; test: M481 primary human melanoma xenografts in mice; type: in vivo, mouse; settings: in combination with Plexicon
# [5] = tested on: Human BRAFV600 (M491) cells; test: Human BRAFV600 (M491) primary melanoma xenografts in mice; type: in vivo, mouse; settings: in combination with BRAFi and MEKi
# [6] = tested on: sox10, dct, ntl, gata1 expression; test: In situ hybridization for neural crest and non-neural crest lineage markers; settings: zebrafish, in vivo
# [7] = 100 mg daily for 3 days, then 20 mg per day; cited from earlier work
# [8] = arthritis patients; cited from earlier work
# [9] = 6.5 uM, 24 hpf, relative to DMSO
smiles,measurement,setting,value
Cc1oncc1C(=O)Nc1ccc(C(F)(F)F)cc1 [leflunomide],ability to inhibit neural crest development (rank order of effect),"[1]; Example III, different concentrations, crestin ISH",approximately the same as compounds 5 and 6
same,crestin expression by ISH,[1],reduction in expression of the neural crest
same,crestin expression by ISH,[1]; listed as Leflunomide,phenocopied NSC210627
same,dlb 3′ transcript abundance,[2]; [9],0.74+/−0.07 fold
same,dlb 5′ transcript abundance,[2]; [9],1.13+/−0.14 fold
same,mitf 3′ transcript abundance,[2]; [9],0.39+/−0.07 fold
same,mitf 5′ transcript abundance,[2]; [9],3.75+/−1.19 fold
same,beta-actin 3′ transcript abundance,"[2]; control gene, 6.5 uM, 24 hpf",0.99+/−0.06 fold
same,beta-actin 5′ transcript abundance,"[2]; control gene, 6.5 uM, 24 hpf",1.03+/−0.07 fold
same,"3′ transcription of mitf, pvalb2, her4.2 and dlb",[2]; leflunomide vs. DMSO,significant decrease in 3′ transcription
same,proliferation of human melanoma cell lines,[3],dose-dependent decrease in melanoma proliferation
same,gene expression in A375 (microarray),A375 cell line,downregulation of genes required for neural crest development
same,tumor growth at 12 days post-treatment,A375 melanoma cells,4.7+/−0.12 fold
same,cell survival of A375 cells,A375 cells,impair cell survival
same,tumor volume,[4],more effective when used in combination with Plexicon
same,tumor growth,[5],significantly impair tumor growth
same,expression of sox10 and dct (ISH),[6],reduced expression of sox10 and dct
same,intensity of mesoderm marker ntl and blood marker gata1 (ISH),[6],No significant difference is seen in intensity
same,steady-state concentration,[7],approximately 60 mcg/mL
same,treatment-related adverse event more prevalent than with placebo,[8],elevation of liver transaminase
